The target in assay [1] is T1, Mitogen-activated protein kinase kinase kinase 5 (Homo sapiens) (UniProt Q99683).
T1 sequence (whole entry): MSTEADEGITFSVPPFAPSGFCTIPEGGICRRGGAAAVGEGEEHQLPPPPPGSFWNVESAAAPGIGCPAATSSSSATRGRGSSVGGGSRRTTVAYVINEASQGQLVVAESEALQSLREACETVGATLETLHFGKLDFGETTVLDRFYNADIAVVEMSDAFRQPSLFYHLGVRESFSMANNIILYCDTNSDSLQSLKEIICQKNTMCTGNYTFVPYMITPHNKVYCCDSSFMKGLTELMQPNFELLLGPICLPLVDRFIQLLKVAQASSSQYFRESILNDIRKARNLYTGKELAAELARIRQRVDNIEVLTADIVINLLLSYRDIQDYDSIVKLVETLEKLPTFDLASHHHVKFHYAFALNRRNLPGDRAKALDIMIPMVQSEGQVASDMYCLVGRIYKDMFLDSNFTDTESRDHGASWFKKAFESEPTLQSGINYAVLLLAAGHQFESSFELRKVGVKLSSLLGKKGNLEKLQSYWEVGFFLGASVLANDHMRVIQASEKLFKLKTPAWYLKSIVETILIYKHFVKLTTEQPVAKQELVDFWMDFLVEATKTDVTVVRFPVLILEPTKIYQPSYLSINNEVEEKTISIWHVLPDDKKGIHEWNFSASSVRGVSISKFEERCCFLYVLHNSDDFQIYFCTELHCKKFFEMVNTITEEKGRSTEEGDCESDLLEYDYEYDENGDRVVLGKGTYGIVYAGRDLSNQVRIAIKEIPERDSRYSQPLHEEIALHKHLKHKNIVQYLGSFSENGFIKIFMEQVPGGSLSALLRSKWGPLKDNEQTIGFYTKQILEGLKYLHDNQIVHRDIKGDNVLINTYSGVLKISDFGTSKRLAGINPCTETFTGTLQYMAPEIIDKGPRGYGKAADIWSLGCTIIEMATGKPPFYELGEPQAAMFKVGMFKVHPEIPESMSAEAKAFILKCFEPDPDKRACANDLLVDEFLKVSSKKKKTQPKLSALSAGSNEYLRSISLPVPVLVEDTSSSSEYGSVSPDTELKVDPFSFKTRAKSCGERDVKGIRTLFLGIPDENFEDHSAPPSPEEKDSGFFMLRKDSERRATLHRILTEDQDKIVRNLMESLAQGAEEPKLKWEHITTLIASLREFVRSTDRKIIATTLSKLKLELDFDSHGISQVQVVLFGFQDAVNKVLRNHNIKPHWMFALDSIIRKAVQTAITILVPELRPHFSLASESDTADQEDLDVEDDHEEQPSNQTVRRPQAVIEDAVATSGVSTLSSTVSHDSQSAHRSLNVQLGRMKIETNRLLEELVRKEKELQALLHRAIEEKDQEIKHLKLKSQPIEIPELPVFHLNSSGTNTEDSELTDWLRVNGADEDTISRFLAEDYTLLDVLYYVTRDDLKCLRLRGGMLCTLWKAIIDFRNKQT
The experiment in a line: Selectivity interaction (ActivX KiNativ screen (kinase selectivity in THP-1 cell lysates)) EUB0000639a MAP3K5. It counts as subcellular. Particulars: lysate, at 0.04 µM.

The target of assay [2] is T2, Inhibitor of nuclear factor kappa-B kinase subunit beta (Homo sapiens) (UniProt O14920).
T2 sequence (whole entry): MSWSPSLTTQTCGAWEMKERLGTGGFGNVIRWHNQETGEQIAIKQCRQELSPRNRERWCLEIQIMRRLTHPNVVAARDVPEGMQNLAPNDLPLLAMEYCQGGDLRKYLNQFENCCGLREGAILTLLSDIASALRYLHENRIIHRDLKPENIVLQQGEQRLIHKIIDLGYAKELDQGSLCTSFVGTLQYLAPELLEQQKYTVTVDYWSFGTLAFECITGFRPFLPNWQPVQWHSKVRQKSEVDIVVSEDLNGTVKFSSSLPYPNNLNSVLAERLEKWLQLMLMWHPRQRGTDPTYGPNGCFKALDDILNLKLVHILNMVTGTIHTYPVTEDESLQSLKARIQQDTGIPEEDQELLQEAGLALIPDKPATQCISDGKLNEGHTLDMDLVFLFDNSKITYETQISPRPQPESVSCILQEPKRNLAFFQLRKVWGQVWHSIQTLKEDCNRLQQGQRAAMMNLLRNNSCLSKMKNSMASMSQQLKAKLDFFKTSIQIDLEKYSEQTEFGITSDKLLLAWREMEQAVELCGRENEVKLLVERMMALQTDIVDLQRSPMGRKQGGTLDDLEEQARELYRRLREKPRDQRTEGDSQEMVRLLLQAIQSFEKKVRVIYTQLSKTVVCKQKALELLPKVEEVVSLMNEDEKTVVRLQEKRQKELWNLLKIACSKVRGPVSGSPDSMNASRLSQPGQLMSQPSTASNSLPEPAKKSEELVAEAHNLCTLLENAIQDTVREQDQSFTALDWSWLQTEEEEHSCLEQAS
The experiment in a line: Selectivity interaction (ActivX KiNativ screen (kinase selectivity in THP-1 cell lysates)) EUB0000639a IKBKB. It counts as subcellular. The conditions noted are these: lysate.

For assay [3], the target named is T3, Serine/threonine-protein kinase Chk1 (Homo sapiens) (UniProt O14757).
T3 sequence (whole entry): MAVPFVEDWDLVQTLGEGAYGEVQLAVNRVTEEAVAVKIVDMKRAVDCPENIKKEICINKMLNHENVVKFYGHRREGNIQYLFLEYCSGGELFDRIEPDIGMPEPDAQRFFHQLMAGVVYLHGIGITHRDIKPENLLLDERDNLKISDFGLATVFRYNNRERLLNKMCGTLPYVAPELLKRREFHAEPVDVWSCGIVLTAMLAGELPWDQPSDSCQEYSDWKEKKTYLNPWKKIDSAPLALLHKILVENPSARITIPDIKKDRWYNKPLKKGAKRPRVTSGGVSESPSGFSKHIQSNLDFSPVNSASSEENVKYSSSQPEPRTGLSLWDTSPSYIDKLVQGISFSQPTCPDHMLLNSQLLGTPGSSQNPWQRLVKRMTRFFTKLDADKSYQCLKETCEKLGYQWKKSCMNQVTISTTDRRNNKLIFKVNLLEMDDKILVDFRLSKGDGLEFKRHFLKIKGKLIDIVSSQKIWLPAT
The experiment in a line: Selectivity interaction (KinomeScan (DiscoverX)) EUB0000618a CHEK1. The conditions noted are these: at 10 µM.

This passage reports % of inhibition and % of control results from ChEMBL document CHEMBL5465560, “Selectivity Literature for EUbOPEN Chemogenomic Library” (2024).

On to `CC[C@@H]1[C@H](F)C(=O)N[C@@H]1COc1nccc2cc(C(N)=O)c(OC)cc12` [ZIMLOVISERTIB], for which the % of inhibition is -7.7% in assay [1]; -9.1% in assay [2] (at 0.01 µM); 4.5% in assay [2] (at 0.04 µM); -13.8% in assay [2] (at 0.2 µM); 4.1% in assay [2] (at 1 µM); -6.8% in assay [2] (at 5 µM).
`O[C@H]1CC[C@H](Nc2ncc3nc(Nc4c(F)cc(F)cc4F)n([C@H]4CCOC4)c3n2)CC1` gave a % of control in assay [3] of 97%.
